Test results: paper PMC3733713, “Downscaling the Analysis of Complex Transmembrane Signaling Cascades to Closed Attoliter Volumes” (PLoS ONE, 2013)

Molecular target: T1, adenosine A2A receptor (A2AR-YFP) (Homo sapiens, UniProt P29274)
T1 construct: gene ADORA2A; Human adenosine 2A receptor fused C-terminally to EYFP
Assay: fluorescence correlation spectroscopy titration on single native vesicles from HEK293T cells (KD =[…] on cells)
Type: binding

T1 sequence (P29274 whole entry, the tested form may be a part): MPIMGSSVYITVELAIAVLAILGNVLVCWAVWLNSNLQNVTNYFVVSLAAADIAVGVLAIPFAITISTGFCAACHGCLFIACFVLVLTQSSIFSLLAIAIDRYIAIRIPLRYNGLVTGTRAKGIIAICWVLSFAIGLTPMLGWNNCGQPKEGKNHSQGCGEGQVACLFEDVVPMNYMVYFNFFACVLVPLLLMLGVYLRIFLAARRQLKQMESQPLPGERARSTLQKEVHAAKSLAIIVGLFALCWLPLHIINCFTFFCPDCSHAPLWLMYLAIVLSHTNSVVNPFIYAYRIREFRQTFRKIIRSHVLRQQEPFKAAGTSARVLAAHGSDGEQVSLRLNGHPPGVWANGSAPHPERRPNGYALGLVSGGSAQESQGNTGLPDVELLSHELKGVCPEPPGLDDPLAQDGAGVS

Kd: 67 ± 11 nM
Substance: XAC-Atto655
